In patent publication US8389679B2, “Targeted antimicrobial moieties” (priority 2009, dated 2013):
Entries after “also recorded” stand apart in the source; their conditions may differ.

Test system: target microorganisms
Experiment: Screen of synthesized peptides for binding to target microorganisms (targeting peptides, Tables 2 and 3)
Conditions: microorganism(s) the targeting peptide was identified as binding to (Table 3)
Description: Once noted, these peptides were batch synthesized on a multiplex peptide synthesizer, yielding 5-10 mg of each peptide that could readily be screened for biological activity (e.g., binding activity and/or antimicrobial activity.
Other suitable targeting peptides include the peptides that have been identified as binding to particular target organisms as shown in Table 3 and/or Table 4.

Row | Substance | Target(s)
1 | 1T-52 (DEYPAKLPLSDKGATEPRRH; synthetic novel tartgeting peptide IT-52) | S. aureus; also recorded: C. xerosis; also recorded: P. aeruginosa
2 | 1T-53 (SDILAEMFEKGELQTLVKDAAAKANA; synthetic novel tartgeting peptide IT-53) | P. aeruginosa
3 | 1T-54 (RWVSCNPSWRIQ; synthetic novel tartgeting peptide IT-54) | S. epidermidis; also recorded: C. xerosis; also recorded: C. striatum; also recorded: P. aeruginosa
4 | 1T-55 (NHKTLKEWKAKWGPEAVESWATLLG; synthetic novel tartgeting peptide IT-55) | C. xerosis; also recorded: P. aeruginosa
5 | 1T-56 (LALIGAGIWMIRKG; synthetic novel tartgeting peptide IT-56) | C. xerosis; also recorded: P. aeruginosa
6 | 1T-57 (RLEYRRLETQVEENPESGRRPMRG; synthetic novel tartgeting peptide IT-57) | P. aeruginosa
7 | 1T-58 (CDDLHALERAGKLDALLSA; synthetic novel tartgeting peptide IT-58) | P. aeruginosa
8 | 1T-59 (AVGNNLGKDNDSGHRGKKHRKHKHR; synthetic novel tartgeting peptide IT-59) | S. aureus; also recorded: S. epidermidis; also recorded: P. aeruginosa
9 | 1T-60 (YLTSLGLDAAEQAQGLLTILKG; synthetic novel tartgeting peptide IT-60) | S. aureus; also recorded: S. epidermidis; also recorded: C. jeikeium; also recorded: C. striatum; also recorded: P. aeruginosa
10 | 1T-61 (HATLLPAVREAISRQLLPALVPRG; synthetic novel tartgeting peptide IT-61) | P. aeruginosa
11 | 1T-62 (GCKGCAQRDPCAEPEPYFRLR; synthetic novel tartgeting peptide IT-62) | S. epidermidis; also recorded: P. aeruginosa
12 | 1T-63 (EPLILKELVRNLFLFCYARALR; synthetic novel tartgeting peptide IT-63) | S. aureus; also recorded: S. epidermidis; also recorded: C. jeikeium; also recorded: C. xerosis; also recorded: C. striatum; also recorded: P. aeruginosa
13 | 1T-64 (QTVHHIHMHVLGQRQMHWPPG; synthetic novel tartgeting peptide IT-64) | S. aureus; also recorded: S. epidermidis; also recorded: C. jeikeium; also recorded: C. xerosis; also recorded: C. striatum; also recorded: P. aeruginosa
14 | 1T-65 (HARAAVGVAELPRGAAVEVELIAAVRP; synthetic novel tartgeting peptide IT-65) | S. mutans; also recorded: S. aureus; also recorded: S. epidermidis; also recorded: C. jeikeium; also recorded: C. xerosis; also recorded: C. striatum; also recorded: P. aeruginosa
15 | 1T-66 (DTDCLSRAYAQRIDELDKQYAGIDKPL; synthetic novel tartgeting peptide IT-66) | S. mutans; also recorded: S. aureus; also recorded: S. epidermidis; also recorded: C. jeikeium; also recorded: C. xerosis; also recorded: C. striatum; also recorded: P. aeruginosa
16 | 1T-67 (GQRQRLTCGRVSGCSEGPSREAAR; synthetic novel tartgeting peptide IT-67) | S. aureus; also recorded: S. epidermidis; also recorded: C. jeikeium; also recorded: C. xerosis; also recorded: C. striatum; also recorded: P. aeruginosa
17 | 1T-68 (GGTKEIVYQRG; synthetic novel tartgeting peptide IT-68) | S. mutans; also recorded: S. aureus; also recorded: C. jeikeium; also recorded: C. xerosis; also recorded: C. striatum; also recorded: P. aeruginosa
18 | 1T-69 (ILSQEADRKKLF; synthetic novel tartgeting peptide IT-69) | S. mutans; also recorded: P. aeruginosa
19 | 1T-70 (NRQAQGERAHGEQQG; synthetic novel tartgeting peptide IT-70) | S. aureus; also recorded: C. jeikeium; also recorded: P. aeruginosa
20 | 1T-71 (KIDTNQWPPNKEG; synthetic novel tartgeting peptide IT-71) | P. aeruginosa
21 | 1T-72 (EPTDGVACKER; synthetic novel tartgeting peptide IT-72) | P. aeruginosa
22 | 1T-73 (GWWEELLHETILSKFKITKALELPIQL; synthetic novel tartgeting peptide IT-73) | Streptococcus; also recorded: pneumoniae
23 | 1T-74 (DIDWGRKISCAAGVAYGAIDGCATTV; synthetic novel tartgeting peptide IT-74) | S. pneumoniae
24 | 1T-75 (GVARGLQLGIKTRTQWGAATGAA; synthetic novel tartgeting peptide IT-75) | S. pneumoniae
25 | 1T-76 (EMRLSKFFRDFILWRKK; synthetic novel tartgeting peptide IT-76) | S. pneumoniae
26 | 1T-77 (EMRISRIILDFLFLRKK; synthetic novel tartgeting peptide IT-77) | S. pneumoniae

Row | Substance | Target(s)
27 | 1T-78 (FFKTIFVLILGALGVAAGLYIEKNYIDK; synthetic novel tartgeting peptide IT-78) | S. pneumoniae
28 | 1T-79 (FGTPWSITNFWKKNFNDRPDFDSDRRRY; synthetic novel tartgeting peptide IT-79) | S. pneumoniae
29 | 1T-80 (GGNLGPGFGVIIP; synthetic novel tartgeting peptide IT-80) | S. pneumoniae
30 | 1T-81 (AIATGLDIVDGKFDGYLWA; synthetic novel tartgeting peptide IT-81) | S. pneumoniae
31 | 1T-82 (FGVGVGIALFMAGYAIGKDLRKKFGKSC; synthetic novel tartgeting peptide IT-82) | S. pneumoniae
32 | 1T-83 (QKPRKNETFIGYIQRYDIDGNGYQSLPCPQN; synthetic novel tartgeting peptide IT-83) | S. pneumoniae
33 | 1T-84 (FRKKRYGLSILLWLNAFTNLVNSIHAFYMTLF; synthetic novel tartgeting peptide IT-84) | S. pneumoniae
34 | 1T-85 (VMASLTWRMRAASASLPTHSRTDA; synthetic novel tartgeting peptide IT-85) | A. naeslundii, F. nucleatum,; also recorded: P. gingivalis; also recorded: S. epidermidis,; also recorded: S. gordonii, S. mitis, S. mutans,; also recorded: S. oralis, S. salivarious,; also recorded: S. sanguinis
35 | 1T-86 (HRKNPVLGVGRRHRAHNVA; synthetic novel tartgeting peptide IT-86) | S. mitis, S. oralis, S. salivarious
36 | 1T-87 (EAVGQDLVDAHHP; synthetic novel tartgeting peptide IT-87) | S. mitis, S. mutans, S. oralis
37 | 1T-89 (HEDDKRRGMSVEVLGFEVVQHEE; synthetic novel tartgeting peptide IT-89) | S. mitis, S. mutans
38 | 1T-90 (RNVIGQVL; synthetic novel tartgeting peptide IT-90) | S. gordonii, S. mitis, S. mutans,; also recorded: S. oralis, S. sanguinis
39 | 1T-91 (TSVRPGAAGAAVPAGAAGAAGAGWRWP; synthetic novel tartgeting peptide IT-91) | S. mitis, S. mutans, S. oralis,; also recorded: S. sanguinis
40 | 1T-92 (GQDEGQRRAGVGEGQGVDG; synthetic novel tartgeting peptide IT-92) | S. mitis, S. mutans
41 | 1T-93 (AMRSVNQA; synthetic novel tartgeting peptide IT-93) | S. epidermidis, S. gordonii,; also recorded: S. mitis, S. mutans,; also recorded: S. oralis, S. sanguinis
42 | 1T-94 (DQVAHSGDMLVQARRRDS; synthetic novel tartgeting peptide IT-94) | S. mitis, S. mutans, S. oralis
43 | 1T-95 (GHLLRVGGRVGGVGGVAGACAQPFGGQ; synthetic novel tartgeting peptide IT-95) | S. gordonii, S. mitis, S. mutans,; also recorded: S. oralis, S. sanguinis
44 | 1T-96 (VAGACAQPFGGQ; synthetic novel tartgeting peptide IT-96) | S. gordonii, S. mitis, S. mutans,; also recorded: S. oralis, S. sanguinis
45 | 1T-97 (GVAERNLDRITVAVAIIWTITIVGLGLVAKLG; synthetic novel tartgeting peptide IT-97) | A. naeslundii, F. nucleatum,; also recorded: P. gingivalis; also recorded: S. epidermidis,; also recorded: S. gordonii, S. mitis, S. mutans,; also recorded: S. oralis, S. salivarious,; also recorded: S. sanguinis
46 | 1T-98 (VRSAKAVKALTAAGYTGELVNVSGGMKAWLGQ; synthetic novel tartgeting peptide IT-98) | A. naeslundii, F. nucleatum,; also recorded: P. gingivalis; also recorded: S. epidermidis,; also recorded: S. gordonii, S. mitis, S. mutans,; also recorded: S. oralis, S. salivarious,; also recorded: S. sanguinis
47 | 1T-99 (MKAWLGQ; synthetic novel tartgeting peptide IT-99) | S. gordonii, S. mitis, S. mutans,; also recorded: S. oralis, S. sanguinis
48 | 1T-100 (LDPLEPRIAPPGDRSHQGAPACHRDPLRGRSARDAER; synthetic novel tartgeting peptide IT-100) | S. gordonii, S. mitis, S. mutans
49 | 1T-101 (RLRVGRATDLPLTSFAVGVVRNLPDAPAH; synthetic novel tartgeting peptide IT-101) | A. naeslundii, P. gingivalis; also recorded: S. epidermidis,; also recorded: S. gordonii, S. mitis, S. mutans,; also recorded: S. oralis, S. sanguinis
50 | 1T-102 (WKRLWPARILAGHSRRRMRWMVVWRYFAAT; synthetic novel tartgeting peptide IT-102) | A. naeslundii, F. nucleatum,; also recorded: P. gingivalis; also recorded: S. epidermidis,; also recorded: S. gordonii, S. mitis, S. mutans,; also recorded: S. oralis, S. salivarious,; also recorded: S. sanguinis
51 | 1T-103 (AQFYEAIITGYALGAGQRIGQL; synthetic novel tartgeting peptide IT-103) | A. naeslundii, F. nucleatum,; also recorded: P. gingivalis; also recorded: S. epidermidis,; also recorded: S. gordonii, S. mitis, S. mutans,; also recorded: S. oralis, S. sanguinis
52 | 1T-104 (RAVAAHLQGRHHGHQVRRQRHGQR; synthetic novel tartgeting peptide IT-104) | S. mitis
